Results: ChEMBL document CHEMBL3046395, “Synthesis and pharmacological investigation of novel 3-(benzyl)-2-substituted amino-3H-quinazolin-4-ones as analgesic and anti-inflammatory agents” (Med Chem Res, 2008)

Assays:
Rattus norvegicus [1] = test: Anti-inflammatory activity in Rattus norvegicus (rat) assessed as inhibition of carrageenan-induced paw edema at 20 mg/kg, po measured at 30 min post carrageenan-challenge (reference value: 5.1 +/- 0.29%); format: functional; details: 0.5 h
Rattus norvegicus [2] = test: Anti-inflammatory activity in Rattus norvegicus (rat) assessed as inhibition of carrageenan-induced paw edema at 10 mg/kg, po measured at 30 min post carrageenan-challenge (reference value: 5.1 +/- 0.29%); format: functional; details: 0.5 h
Mus musculus [3] = test: Analgesic activity in Mus musculus Wistar albino (mouse) at 20 mg/kg, po after 3 hr by tail-flick test (reference value: 4 +/- 0.91%); format: functional
Mus musculus [4] = test: Analgesic activity in Mus musculus Wistar albino (mouse) at 10 mg/kg, po after 3 hr by tail-flick test (reference value: 4 +/- 0.91%); format: functional
Mus musculus [5] = test: Analgesic activity in Mus musculus Wistar albino (mouse) at 20 mg/kg, po after 2 hr by tail-flick test (reference value: 4 +/- 0.59%); format: functional
Mus musculus [6] = test: Analgesic activity in Mus musculus Wistar albino (mouse) at 10 mg/kg, po after 2 hr by tail-flick test (reference value: 4 +/- 0.59%); format: functional
Mus musculus [7] = test: Analgesic activity in Mus musculus Wistar albino (mouse) at 20 mg/kg, po after 1 hr by tail-flick test (reference value: 6 +/- 0.49%); format: functional
Mus musculus [8] = test: Analgesic activity in Mus musculus Wistar albino (mouse) at 10 mg/kg, po after 1 hr by tail-flick test (reference value: 6 +/- 0.49%); format: functional
Mus musculus [9] = test: Analgesic activity in Mus musculus Wistar albino (mouse) at 20 mg/kg, po after 30 min by tail-flick test (reference value: 2 +/- 0.35%); format: functional
Mus musculus [10] = test: Analgesic activity in Mus musculus Wistar albino (mouse) at 10 mg/kg, po after 30 min by tail-flick test (reference value: 2 +/- 0.35%); format: functional
Rattus norvegicus [11] = test: Gastrointestinal toxicity in Rattus norvegicus Wistar albino (rat) assessed as ulcer index at 20 mg/kg, ip administered QD for 3 days measured on day 4 (reference value: 0.15 +/- 0.32); format: organism-based; parameters: dose 20 mg/kg, route intraperitoneal; details: in vivo, 72 h
Rattus norvegicus [12] = test: Anti-inflammatory activity in Rattus norvegicus (rat) assessed as inhibition of carrageenan-induced paw edema at 20 mg/kg, po measured at 3 hr post carrageenan-challenge (reference value: 3.2 +/- 0.93%); format: functional
Rattus norvegicus [13] = test: Anti-inflammatory activity in Rattus norvegicus (rat) assessed as inhibition of carrageenan-induced paw edema at 10 mg/kg, po measured at 3 hr post carrageenan-challenge (reference value: 3.2 +/- 0.93%); format: functional
Rattus norvegicus [14] = test: Anti-inflammatory activity in Rattus norvegicus (rat) assessed as inhibition of carrageenan-induced paw edema at 20 mg/kg, po measured at 2 hr post carrageenan-challenge (reference value: 5.7+/- 0.32%); format: functional
Rattus norvegicus [15] = test: Anti-inflammatory activity in Rattus norvegicus (rat) assessed as inhibition of carrageenan-induced paw edema at 10 mg/kg, po measured at 2 hr post carrageenan-challenge (reference value: 5.7+/- 0.32%); format: functional
Rattus norvegicus [16] = test: Anti-inflammatory activity in Rattus norvegicus (rat) assessed as inhibition of carrageenan-induced paw edema at 20 mg/kg, po measured at 1 hr post carrageenan-challenge (reference value: 6.1 +/- 0.27%); format: functional
Rattus norvegicus [17] = test: Anti-inflammatory activity in Rattus norvegicus (rat) assessed as inhibition of carrageenan-induced paw edema at 10 mg/kg, po measured at 1 hr post carrageenan-challenge (reference value: 6.1 +/- 0.27%); format: functional

| Structure (SMILES) | inhibition in vivo at 20 mg/kg (Rattus norvegicus [1]) [%] | inhibition in vivo at 10 mg/kg (Rattus norvegicus [2]) [%] | Activity (Mus musculus [3]) [%] | Activity (Mus musculus [4]) [%] | Activity (Mus musculus [5]) [%] | Activity (Mus musculus [6]) [%] | Activity (Mus musculus [7]) [%] | Activity (Mus musculus [8]) [%] | Activity (Mus musculus [9]) [%] | Activity (Mus musculus [10]) [%] | UI (Rattus norvegicus [11]) | inhibition in vivo at 20 mg/kg (Rattus norvegicus [12]) [%] | inhibition in vivo at 10 mg/kg (Rattus norvegicus [13]) [%] | inhibition in vivo at 20 mg/kg (Rattus norvegicus [14]) [%] | inhibition in vivo at 10 mg/kg (Rattus norvegicus [15]) [%] | inhibition in vivo at 20 mg/kg (Rattus norvegicus [16]) [%] | inhibition in vivo at 10 mg/kg (Rattus norvegicus [17]) [%] |
| --- | --- | --- | --- | --- | --- | --- | --- | --- | --- | --- | --- | --- | --- | --- | --- | --- | --- |
| C/C(=N\Nc1nc2ccccc2c(=O)n1Cc1ccccc1)c1ccccc1 | 48 | 40 | 37 | 30 | 69 | 57 | 62 | 47 | 57 | 45 | 0.6 | 33 | 27 | 58 | 46 | 53 | 41 |
| Cc1ccccc1/C=N/Nc1nc2ccccc2c(=O)n1Cc1ccccc1 | 45 | 39 | 39 | 32 | 59 | 48 | 58 | 48 | 52 | 44 | 0.66 | 36 | 28 | 51 | 45 | 47 | 42 |
| O=c1c2ccccc2nc(NN=C2CCCCC2)n1Cc1ccccc1 | 45 | 36 | 41 | 34 | 61 | 54 | 58 | 46 | 51 | 42 | 0.59 | 32 | 25 | 58 | 45 | 52 | 38 |
| CCN(CC)C(=S)Nn1c(-c2ccccc2)nc2ccccc2c1=O | – | – | – | – | 58 | 44 | – | – | – | – | – | – | – | 53 | 38 | – | – |
| CCC(CC)=NNc1nc2ccccc2c(=O)n1Cc1ccccc1 | 59 | 49 | 50 | 41 | 81 | 72 | 79 | 69 | 74 | 63 | 0.5 | 41 | 30 | 70 | 56 | 68 | 53 |
| CC/C(C)=N/Nc1nc2ccccc2c(=O)n1Cc1ccccc1 | 50 | 45 | 45 | 35 | 76 | 65 | 73 | 62 | 71 | 59 | 0.53 | 39 | 26 | 60 | 51 | 59 | 48 |
| Cc1nc2ccccc2c(=O)n1NC(=S)n1cccc1 | – | – | – | – | 65 | 50 | – | – | – | – | – | – | – | 60 | 44 | – | – |
| CCN(CC)C(=S)Nn1c(SC)nc2ccccc2c1=O | – | – | – | – | 67 | 56 | – | – | – | – | – | – | – | 62 | 40 | – | – |
| CC(=O)Oc1ccccc1C(=O)O [ASPIRIN] | – | – | – | – | – | – | – | – | – | – | 1.73 | – | – | – | – | – | – |
